Reference: paper PMC4503722, “Novel Phenotypic Outcomes Identified for a Public Collection of Approved Drugs from a Publicly Accessible Panel of Assays” (PLoS ONE, 2015)
pEC50, pIC50: −log10 of the molar value. Where two headings read alike, the source gives them in different places.

How the values were obtained:
[1] = system: endothelial tube formation in co-cultures of ECFCs and ADSCs treated with VEGF; test: cells; assay type: cell-based, human
[2] = system: nuclear β-catenin in C2C12 cells; test: cells; assay type: cell-based
INS-1E cells = test: cells; assay type: cell-based, rat
NCI-H716 cells = test: cells; assay type: cell-based, Human
HeLa cells = test: cells; assay type: cell-based
DLD-1 = test: cells; assay type: cell-based
SW480 = test: cells; assay type: cell-based
HCT116 = test: cells; assay type: cell-based
[3] = system: HCT116 cells treated with a GSK3β inhibitor; test: cells; assay type: cell-based
hp70S6K1 (RPS6KB1) = molecular target: T1, hp70S6K1 (RPS6KB1) (Homo sapiens, UniProt P23443); test: Cerep LANCE kinase assay hp70S6K1 (S1 assay 31); assay type: biochemical; conditions: read-out: p70S6K1
T1 construct: purchased Cerep (LANCE kinase assay platform, contract assay)

hKDR = molecular target: T2, hKDR (Homo sapiens, UniProt P35968); test: Cerep LANCE kinase assay hKDR (S1 assay 32); assay type: biochemical; conditions: read-out: KDR
T2 construct: purchased Cerep (LANCE kinase assay platform, contract assay)

hJAK2 = molecular target: T3, hJAK2 (Homo sapiens, UniProt O60674); test: Cerep LANCE kinase assay hJAK2 (S1 assay 33); assay type: biochemical; conditions: read-out: JAK2
T3 construct: purchased Cerep (LANCE kinase assay platform, contract assay)

hGSK3b = molecular target: T4, hGSK3b (Homo sapiens, UniProt P49841); test: Cerep LANCE kinase assay hGSK3b (S1 assay 34); assay type: biochemical; conditions: read-out: GSK3b
T4 construct: purchased Cerep (LANCE kinase assay platform, contract assay)

hFLT3 = molecular target: T5, hFLT3 (Homo sapiens, UniProt P36888); test: Cerep LANCE kinase assay hFLT3 (S1 assay 35); assay type: biochemical; conditions: read-out: FLT3
T5 construct: purchased Cerep (LANCE kinase assay platform, contract assay)

[4] = Homo sapiens; read-out: Anti-Angiogenesis
[5] = Mus musculus, C2C12; read-out: Wnt Pathway
[6] = Rattus norvegicus, INS-1E; read-out: Insulin Secretion
[7] = Homo sapiens, NCI-H716; read-out: GLP 1 Secretion
[8] = Homo sapiens, HCT-116, basal, HCT116, read-out: Basal_Viability ATP HCT116
[9] = Homo sapiens, HCT-116, HCT116 pretreated with GSK3b inhibitor, read-out: GSK3b inh pretreated_Viability ATP HCT116
[10] = Rattus norvegicus, INS-1E, read-out: Insulin Secretion
[11] = Homo sapiens, HeLa, read-out: CellCycle G2/M
[12] = Homo sapiens, DLD-1, read-out: Basal_Viability ATP DLD-1
[13] = Homo sapiens, SW480, read-out: Basal_Viability ATP SW480
[14] = Homo sapiens, HCT-116, read-out: Basal_Viability ATP HCT116
[15] = Homo sapiens, HCT-116, read-out: GSK3b inh pretreated_Viability ATP HCT116

T2 sequence (P35968 20-1356): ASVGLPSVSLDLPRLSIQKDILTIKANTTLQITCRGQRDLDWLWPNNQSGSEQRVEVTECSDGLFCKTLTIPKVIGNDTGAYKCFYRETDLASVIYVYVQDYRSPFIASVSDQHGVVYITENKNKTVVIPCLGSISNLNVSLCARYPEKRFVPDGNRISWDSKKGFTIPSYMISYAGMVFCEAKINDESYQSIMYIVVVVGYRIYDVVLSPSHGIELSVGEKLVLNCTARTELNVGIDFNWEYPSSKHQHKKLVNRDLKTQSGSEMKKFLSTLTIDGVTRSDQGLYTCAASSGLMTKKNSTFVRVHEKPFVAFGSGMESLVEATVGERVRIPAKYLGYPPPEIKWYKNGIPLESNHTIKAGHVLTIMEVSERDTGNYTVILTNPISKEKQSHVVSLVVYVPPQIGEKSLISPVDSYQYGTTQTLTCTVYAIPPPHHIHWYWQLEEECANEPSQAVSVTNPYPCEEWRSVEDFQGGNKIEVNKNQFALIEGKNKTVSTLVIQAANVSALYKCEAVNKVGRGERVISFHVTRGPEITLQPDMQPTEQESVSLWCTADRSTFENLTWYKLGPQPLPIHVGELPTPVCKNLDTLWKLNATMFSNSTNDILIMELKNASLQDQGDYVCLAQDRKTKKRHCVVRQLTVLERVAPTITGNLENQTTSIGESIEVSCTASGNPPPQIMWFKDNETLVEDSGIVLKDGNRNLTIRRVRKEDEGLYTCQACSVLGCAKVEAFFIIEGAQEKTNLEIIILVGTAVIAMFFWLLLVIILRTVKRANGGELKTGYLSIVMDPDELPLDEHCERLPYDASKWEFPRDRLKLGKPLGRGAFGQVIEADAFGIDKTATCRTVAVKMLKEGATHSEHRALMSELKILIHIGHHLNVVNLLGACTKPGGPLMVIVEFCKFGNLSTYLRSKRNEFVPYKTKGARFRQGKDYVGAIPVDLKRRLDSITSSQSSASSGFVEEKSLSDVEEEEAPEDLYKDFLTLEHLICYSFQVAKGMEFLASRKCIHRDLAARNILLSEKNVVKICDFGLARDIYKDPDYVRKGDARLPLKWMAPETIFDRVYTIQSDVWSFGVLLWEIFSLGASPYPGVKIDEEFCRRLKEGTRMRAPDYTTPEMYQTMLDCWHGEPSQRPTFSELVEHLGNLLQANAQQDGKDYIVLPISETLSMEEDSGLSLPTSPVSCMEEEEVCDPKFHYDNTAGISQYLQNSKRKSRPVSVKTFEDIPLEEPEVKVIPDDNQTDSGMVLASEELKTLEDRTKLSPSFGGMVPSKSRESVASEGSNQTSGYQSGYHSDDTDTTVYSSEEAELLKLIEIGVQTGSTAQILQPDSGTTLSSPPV
T3 sequence (O60674 whole entry): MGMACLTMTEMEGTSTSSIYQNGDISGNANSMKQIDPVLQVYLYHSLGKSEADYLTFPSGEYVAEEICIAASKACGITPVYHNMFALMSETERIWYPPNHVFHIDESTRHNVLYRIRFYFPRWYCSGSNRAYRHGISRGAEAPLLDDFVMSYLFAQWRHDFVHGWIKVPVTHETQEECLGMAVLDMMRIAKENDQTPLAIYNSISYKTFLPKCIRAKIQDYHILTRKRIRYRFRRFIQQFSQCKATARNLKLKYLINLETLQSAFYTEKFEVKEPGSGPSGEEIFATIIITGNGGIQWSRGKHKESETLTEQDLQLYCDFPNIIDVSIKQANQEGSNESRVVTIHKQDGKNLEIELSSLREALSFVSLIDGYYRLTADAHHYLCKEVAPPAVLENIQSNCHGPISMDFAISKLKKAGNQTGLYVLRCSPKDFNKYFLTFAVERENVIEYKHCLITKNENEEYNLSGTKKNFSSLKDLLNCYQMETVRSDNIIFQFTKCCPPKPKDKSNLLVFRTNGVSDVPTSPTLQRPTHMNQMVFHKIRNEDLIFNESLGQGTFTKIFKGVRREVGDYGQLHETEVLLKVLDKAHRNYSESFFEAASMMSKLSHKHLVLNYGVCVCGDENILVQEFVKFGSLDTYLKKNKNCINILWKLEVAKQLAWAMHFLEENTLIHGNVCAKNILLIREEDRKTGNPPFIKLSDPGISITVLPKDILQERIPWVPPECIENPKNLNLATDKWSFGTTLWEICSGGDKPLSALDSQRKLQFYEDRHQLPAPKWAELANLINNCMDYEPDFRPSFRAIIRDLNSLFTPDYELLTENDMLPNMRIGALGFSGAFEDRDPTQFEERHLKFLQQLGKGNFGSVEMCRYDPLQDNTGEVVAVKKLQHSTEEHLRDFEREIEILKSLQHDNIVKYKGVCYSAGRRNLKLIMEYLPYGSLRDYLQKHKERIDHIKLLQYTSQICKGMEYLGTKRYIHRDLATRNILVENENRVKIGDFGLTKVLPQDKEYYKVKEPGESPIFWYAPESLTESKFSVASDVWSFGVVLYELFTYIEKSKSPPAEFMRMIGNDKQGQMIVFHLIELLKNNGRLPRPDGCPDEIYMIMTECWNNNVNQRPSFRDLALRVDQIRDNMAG
T5 sequence (P36888 27-993): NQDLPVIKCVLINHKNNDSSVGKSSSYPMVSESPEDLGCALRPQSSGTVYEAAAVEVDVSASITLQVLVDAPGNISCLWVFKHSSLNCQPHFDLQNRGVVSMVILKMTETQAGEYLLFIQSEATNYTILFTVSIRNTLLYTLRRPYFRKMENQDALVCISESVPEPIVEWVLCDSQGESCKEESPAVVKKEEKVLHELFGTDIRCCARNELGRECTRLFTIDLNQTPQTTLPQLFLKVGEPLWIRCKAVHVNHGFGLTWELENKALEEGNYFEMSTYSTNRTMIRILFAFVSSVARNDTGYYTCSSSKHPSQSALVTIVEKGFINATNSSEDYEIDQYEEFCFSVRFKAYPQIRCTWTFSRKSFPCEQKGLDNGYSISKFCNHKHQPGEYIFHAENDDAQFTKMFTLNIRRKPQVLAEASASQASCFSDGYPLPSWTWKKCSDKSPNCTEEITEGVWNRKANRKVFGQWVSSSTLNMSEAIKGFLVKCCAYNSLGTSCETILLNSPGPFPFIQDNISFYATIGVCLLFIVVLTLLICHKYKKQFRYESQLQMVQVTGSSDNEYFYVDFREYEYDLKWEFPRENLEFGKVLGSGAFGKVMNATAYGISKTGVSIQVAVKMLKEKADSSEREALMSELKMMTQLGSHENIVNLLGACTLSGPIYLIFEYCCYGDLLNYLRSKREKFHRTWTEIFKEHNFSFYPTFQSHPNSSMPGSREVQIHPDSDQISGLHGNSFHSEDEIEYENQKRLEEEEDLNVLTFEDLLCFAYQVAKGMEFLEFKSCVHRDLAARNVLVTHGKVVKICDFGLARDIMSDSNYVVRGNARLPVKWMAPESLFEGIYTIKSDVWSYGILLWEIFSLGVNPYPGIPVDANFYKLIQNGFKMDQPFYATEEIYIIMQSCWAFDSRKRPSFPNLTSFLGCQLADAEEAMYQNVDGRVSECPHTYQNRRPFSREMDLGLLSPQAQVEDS
T1 sequence (P23443 whole entry): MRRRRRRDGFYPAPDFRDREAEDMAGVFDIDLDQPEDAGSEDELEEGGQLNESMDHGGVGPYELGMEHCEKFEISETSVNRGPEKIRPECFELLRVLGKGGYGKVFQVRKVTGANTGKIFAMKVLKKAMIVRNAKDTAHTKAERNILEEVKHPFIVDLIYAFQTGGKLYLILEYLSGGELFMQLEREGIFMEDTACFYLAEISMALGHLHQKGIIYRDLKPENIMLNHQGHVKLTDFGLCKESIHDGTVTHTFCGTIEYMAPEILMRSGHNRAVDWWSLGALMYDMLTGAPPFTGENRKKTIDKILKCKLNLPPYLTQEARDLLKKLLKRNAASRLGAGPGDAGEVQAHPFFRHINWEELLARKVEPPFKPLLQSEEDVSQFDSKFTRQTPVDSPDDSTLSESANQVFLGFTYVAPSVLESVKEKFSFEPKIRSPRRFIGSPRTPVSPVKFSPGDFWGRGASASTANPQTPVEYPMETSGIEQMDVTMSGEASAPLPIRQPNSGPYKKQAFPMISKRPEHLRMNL
T4 sequence (P49841 whole entry): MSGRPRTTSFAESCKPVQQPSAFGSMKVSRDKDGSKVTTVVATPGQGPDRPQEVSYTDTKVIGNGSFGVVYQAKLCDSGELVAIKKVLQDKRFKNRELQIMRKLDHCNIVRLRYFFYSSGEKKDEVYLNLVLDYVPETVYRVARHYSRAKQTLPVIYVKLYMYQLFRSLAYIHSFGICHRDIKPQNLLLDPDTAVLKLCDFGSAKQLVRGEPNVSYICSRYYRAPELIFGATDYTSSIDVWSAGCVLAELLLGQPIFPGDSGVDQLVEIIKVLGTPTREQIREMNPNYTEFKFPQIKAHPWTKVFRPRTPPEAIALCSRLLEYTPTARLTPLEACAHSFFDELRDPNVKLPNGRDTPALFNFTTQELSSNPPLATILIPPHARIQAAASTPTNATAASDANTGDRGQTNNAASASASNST

Compound | pIC50 [1, 4] | pEC50 [2, 5] | pEC50 (INS-1E cells; [6]) | pEC50 (NCI-H716 cells; [7]) | pIC50 (HCT116; [8]) | pIC50 [3, 9] | pIC50 (hp70S6K1 (RPS6KB1); kinase assay) | pIC50 (hKDR; kinase assay) | pIC50 (hJAK2; kinase assay) | pIC50 (hGSK3b; kinase assay) | pIC50 (hFLT3; kinase assay) | pIC50 (hp70S6K1 (RPS6KB1)) | pIC50 (hKDR) | pIC50 (hJAK2) | pIC50 (hGSK3b) | pIC50 (hFLT3) | pEC50 (INS-1E cells; [10]) | pEC50 (HeLa cells; [11]) | pIC50 (DLD-1; [12]) | pIC50 (SW480; [13]) | also measured
C[C@@]12C(=O)OC(=O)[C@]1(C)[C@H]1CC[C@@H]2O1 [Cantharidine] | 5.91 | 5.83 | < 5.00 | 5.18 | 5.11 | 5.52 | < 4.70 | < 4.70 | < 4.70 | < 4.70 | < 4.70 | – | – | – | – | – | – | – | – | – | pEC50 (HeLa cells; Homo sapiens; S2 Table; HeLa; 20 = no response at highest concentration; read-out: CellCycle G2/M): < 5.00; pIC50 (DLD-1; Homo sapiens, basal, DLD-1, read-out: Basal_Viability ATP DLD-1): 5.95; pIC50 (SW480; Homo sapiens, basal, SW480, read-out: Basal_Viability ATP SW480): 5.73
CCCCCCCCCCCCCCCCCCNC(=O)OC1CCN(C(=O)OC[C@H](COC(=O)N(Cc2cccc[n+]2CC)C(=O)c2ccccc2OC)OC)CC1 [E-5880] | – | – | – | – | – | – | – | – | – | – | – | < 4.70 | < 4.70 | < 4.70 | < 4.70 | < 4.70 | – | – | – | – | pIC50 ([1]; IC50 / EC50; endothelial tube area, ADSC/ECFC co-culture; read-out: Anti-Angiogenesis): 5.83; pEC50 ([2]; IC50 / EC50; C2C12 beta-catenin translocation; read-out: Wnt Pathway): < 5.00; pEC50 (INS-1E cells; IC50 / EC50; INS-1E; read-out: Insulin Secretion): < 4.70; pEC50 (NCI-H716 cells; IC50 / EC50; NCI-H716; read-out: GLP 1 Secretion): 5.02; pEC50 (HeLa cells; IC50 / EC50; HeLa; read-out: CellCycle G2/M): < 5.00; pIC50 (DLD-1; basal, read-out: Basal_Viability ATP DLD-1): 5.48; pIC50 (SW480; basal, read-out: Basal_Viability ATP SW480): 6.27; pIC50 (HCT116; basal, read-out: Basal_Viability ATP HCT116): 5.39; pIC50 ([3]; GSK3b inhibitor pretreated, read-out: GSK3b inh pretreated_Viability ATP HCT116): 5.35
CC[C@]1(O)C[C@H]2CN(CCc3c([nH]c4ccccc34)[C@@](C(=O)OC)(c3cc4c(cc3OC)N(C=O)[C@H]3[C@@](O)(C(=O)OC)[C@H](OC(C)=O)[C@]5(CC)C=CCN6CC[C@]43[C@@H]65)C2)C1 [vincristine] | – | – | – | – | – | – | – | – | – | – | – | < 4.70 | < 4.70 | < 4.70 | < 4.70 | < 4.70 | < 5.00 | 8.23 | 6.10 | 5.51 | pIC50 ([1]; Homo sapiens, read-out: Anti-Angiogenesis): 8.19; pEC50 ([2]; Mus musculus, C2C12, read-out: Wnt Pathway): 8.40; pEC50 (NCI-H716 cells; Homo sapiens, NCI-H716, read-out: GLP 1 Secretion): < 5.00; pIC50 (HCT116; [14]): 6.90; pIC50 [3, 15]: 7.18
CSc1ccc2c(c1)C(N1CCN(C)CC1)Cc1ccccc1S2 (stereo not drawn) [metitepine, reference compound] | – | – | – | – | – | – | – | – | – | – | – | < 4.70 | < 4.70 | < 4.70 | < 4.70 | < 4.70 | 5.53 | < 5.00 | 5.36 | 5.72 | pIC50 ([1]; Homo sapiens, read-out: Anti-Angio IC50): < 5.00; pEC50 ([2]; Mus musculus, C2C12, read-out: Wnt pot. EC50): < 4.70; pEC50 (INS-1E cells; Rattus norvegicus, INS-1E, read-out: Ins. sec. EC50): 5.54; pEC50 (NCI-H716 cells; Homo sapiens, NCI-H716, read-out: GLP1 sec. EC50): < 5.00; pIC50 (DLD-1; Homo sapiens, DLD-1, 72 h, read-out: DLD-1 viab. IC50): 5.36; pIC50 (SW480; Homo sapiens, SW480, 72 h, read-out: SW480 viab. IC50): 5.72; pIC50 (HCT116; Homo sapiens, HCT-116, 72 h, read-out: HCT-116 viab. IC50): 5.42; pIC50 (HCT116; [14]): 5.42; pIC50 ([3]; Homo sapiens, HCT-116, 72 h, read-out: HCT-116 (GSK3β) viab. IC50): 5.34; pIC50 [3, 15]: 5.34
CCCOc1ccc2nc(NC(=O)OC)[nH]c2c1 [Oxibendazole] | 6.48 | 7.06 | < 5.00 | < 5.00 | 5.32 | < 4.70 | < 4.70 | < 4.70 | < 4.70 | < 4.70 | < 4.70 | – | – | – | – | – | – | – | – | – | pEC50 (HeLa cells; Homo sapiens, HeLa, S2 Table; HeLa; 20 = no response at highest concentration; read-out: CellCycle G2/M): 7.25; pIC50 (DLD-1; Homo sapiens, DLD-1, basal, DLD-1, read-out: Basal_Viability ATP DLD-1): < 4.70; pIC50 (SW480; Homo sapiens, SW480, basal, SW480, read-out: Basal_Viability ATP SW480): < 4.70
